Data: patent US20030186943A1, “Substituted gamma-phenyl-delta-lactams and uses related thereto” (Inflazyme Pharmaceuticals Ltd., priority 1998, published 2003)
Like-named read-outs stand apart in the source and are kept apart here.

Tests used:
[1] = test system: Resiniferitoxin-induced mouse ear edema; test: Resiniferitoxin-induced mouse ear edema; type: in vivo; details: CD1 mice; for inhibition in vivo at 100 mg/kg: ip, intraperitoneal administration
Text: One of the primary characteristics of inflammation is an increase in vascular dilation and permeability leading to the extravasation of, and collection of fluids in, the interstitium, resulting in redness and swelling. Rheumatoid arthritis in particular is characterized by pronounced edema of affected joints resulting in significant pain and stiffness. The mouse ear inflammation model is a standard in vivo assay for inflammation that is based on an increase in ear weight which is attributable to edema induced by inflammatory mediators. RTX (resiniferitoxin; Sigma; Catalogue No. R 8756)) is a diterpene isolated from the plant Euphorbia poisonii and is an ultrapotent analog of capsaicin. RTX acts by selectively stimulating nociceptive and thermal-sensitive nerve ending in tissue, eliciting neurogenic edema. Compounds of the present invention, whether administered topically, intraperitoneally or orally, inhibited development of edema induced by topical application of RTX.
Mice (CD1, Charles River Laboratories) were separated into groups (n—5−8) and tagged. Control mice had RTX (0.1 μg/ear) applied topically to the inner and outer sides of the left ear and vehicle applied to the right ear as a control. For topical administration, experimental/treatment mice received RTX+test compound solution (50 μg/ear) on the left ear and acetone on the right ear. For intraperitoneal (i.p.) administration, 100 mg/kg test compound dissolved in 100 μL PEG 200:saline (1:1) was injected followed by a 30 minute waiting period then the standard 30 minute RTX edema induction. For oral (p.o.) administration, 10 mg/kg test compound in 100 μL PEG-200 was given to animals, then edema induced using 0.1 μg/ear RTX after a 1.5 hour waiting period. After edema induction, mice were sacrificed, and a standard disc of ear tissue was removed. Each disk of tissue was immediately weighed to the nearest 1/10th of a mg. Data were analyzed by taking the difference of each left ear from the right ear, calculating the mean+/−SEM. Statistical significance was tested by 2-sample t-test on the left/right ear weight differences of the control group vs. the experimental group.

[2] = test system: primary human neutrophils; test: fMLP-induced human neutrophil chemotaxis; type: cell-based; details: fMLP-induced chemotaxis, X marks this range, read-out: IC50 RANGE (μM) 1-10
Procedure: Chemotaxis buffer containing the chemoattractant fMLP (10 μM) was added to each well of a chemotaxis plate and a filter was inserted ensuring contact between the filter and the chemotaxis buffer in the well. A submaximal concentration of chemoattractant was used which had been determined in previous experiments. […] Freshly isolated neutrophils (1×10^6) were incubated with vehicle (0.125% DMSO)±test compound for 1 hr at 37° C. Treatment and control cell suspensions were then gently resuspended and 20 μL of cells was added to the top side of the filter on each well. The plate was incubated for 1.5 hours at 37° C. under 5% CO2. Cells were then removed from the top side of the filter by aspiration and the entire plate was centrifuged. The filter was removed and known concentrations of cells were added to unused wells to prepare a standard curve. XTT (Sigma; Catalogue No. X 4251)/PMS (Sigma; Catalogue No. P 7626) solution prepared in buffer was added to each well and the cells were further incubated 1-2 hours and measured for absorbance at 450 nm. Absorbance values were converted to cell numbers using the standard curve. IC50 values are averages from at least three separate experiments with triplicate determinations.

[3] = molecular target: T1, cAMP phosphodiesterase 3 from human platelets (Homo sapiens, UniProt Q14432); test: Inhibition of cAMP phosphodiesterase 3 from human platelets; type: biochemical; details: PDE3, platelet cell extract, X marks this range
T1 construct: from tissue; host or cells: human platelets, cytoplasmic extract
T1 sequence (Q14432 whole entry): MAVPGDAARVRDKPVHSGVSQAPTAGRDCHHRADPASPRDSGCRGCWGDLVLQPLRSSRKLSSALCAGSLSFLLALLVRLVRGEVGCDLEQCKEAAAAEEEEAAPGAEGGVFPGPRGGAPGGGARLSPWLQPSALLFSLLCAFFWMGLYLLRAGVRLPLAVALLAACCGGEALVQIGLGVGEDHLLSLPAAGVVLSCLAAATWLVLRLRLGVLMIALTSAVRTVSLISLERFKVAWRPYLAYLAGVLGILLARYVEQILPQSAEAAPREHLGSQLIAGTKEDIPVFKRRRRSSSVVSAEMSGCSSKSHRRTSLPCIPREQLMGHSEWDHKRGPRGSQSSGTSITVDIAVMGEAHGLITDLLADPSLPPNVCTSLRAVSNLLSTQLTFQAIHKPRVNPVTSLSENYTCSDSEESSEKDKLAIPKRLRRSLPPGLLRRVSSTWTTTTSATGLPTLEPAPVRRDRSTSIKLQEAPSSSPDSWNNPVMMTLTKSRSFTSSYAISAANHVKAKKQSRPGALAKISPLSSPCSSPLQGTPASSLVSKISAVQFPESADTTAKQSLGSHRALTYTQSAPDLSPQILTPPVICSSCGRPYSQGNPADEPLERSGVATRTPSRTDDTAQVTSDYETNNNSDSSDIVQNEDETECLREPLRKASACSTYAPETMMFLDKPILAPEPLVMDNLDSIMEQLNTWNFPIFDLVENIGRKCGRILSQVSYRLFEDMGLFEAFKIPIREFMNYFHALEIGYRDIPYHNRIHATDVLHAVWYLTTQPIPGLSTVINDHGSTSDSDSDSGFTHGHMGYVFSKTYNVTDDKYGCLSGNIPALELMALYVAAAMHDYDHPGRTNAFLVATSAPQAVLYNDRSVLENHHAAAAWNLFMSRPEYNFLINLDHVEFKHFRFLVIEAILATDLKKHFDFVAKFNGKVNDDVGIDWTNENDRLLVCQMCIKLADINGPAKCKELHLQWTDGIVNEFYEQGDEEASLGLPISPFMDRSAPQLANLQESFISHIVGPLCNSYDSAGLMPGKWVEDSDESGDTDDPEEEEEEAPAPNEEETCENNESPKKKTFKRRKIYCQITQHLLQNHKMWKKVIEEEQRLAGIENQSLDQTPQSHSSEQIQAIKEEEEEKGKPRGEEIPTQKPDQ
Text: Compound 12 was screened for activity against 5 of the major classes of mammalian cyclic nucleotide phosphodiesterase (termed PDE 1 through 5). PDE's 1 through 4 utilize cAMP as substrate while PDE 5 uses cGMP. The broad specificity PDE inhibitor 3-isobutyl-1-methylxanthine (IBMX; Sigma; Catalogue No. 17018)) was used as a positive control in all assays. PDE's for the various assays were partially purified from the following cells/tissues; PDE 1 (bovine heart), PDE 2 (human platelets), PDE 3 (human platelets), PDE 4 (human promonocytic U937 cells) and PDE 5 (human platelets).
Platelet cell extracts were prepared as described above for the U937 cells. The PDE3 assay was performed using platelet cell extract as described above for the PDE 4 assay. Platelets contain PDE 2, 3 and 5. However PDE2 and 5 preferentially utilize cGMP, so in an assay with cAMP as a substrate they are not detected.

[4] = test system: High Affinity Rolipram Binding Site of PDE4 in Mouse Brain; test: Displacement of [3H]-rolipram from its high affinity binding site (HARBS); details: ratio of IC50 for PDE4 catalytic activity to concentration displacing 50% of rolipram from HARBS
Procedure: Suspension was centrifuged twice at 30,000×G at 4° C. and the supernatant discarded. The pellet was resuspended in buffer, and adjusted to a protein concentration of 0.5 mg/mL. Drugs to be tested were dissolved in DMSO and pipetted in triplicate into a 96 well microplate at concentrations ranging from 1 to 30,000 nM. […] The plate was incubated at 4° C. for 1 hour. Contents of the plate were aspirated through a Whatman GF/C filterplate, and rinsed with 4×200 μL ice-cold buffer. […] Triplicate determinations were performed at each concentration.

[5] = test system: cAMP response element luciferase activity in human U937 monocytic cells; test: Potentiation of forskolin-induced CRE-luciferase activity in U937 cells; type: cell-based; details: U-937, U937 cells co-incubated with 10 μM forskolin, 4 hours, X marks this range
Procedure: Compounds of the present invention were thereby shown to provide potentiated luciferase expression in U937 cells treated with the adenylyl cyclase activator forskolin.
Human pro-monocytic U937 cells were maintained in RPMI medium containing 10% FCS and 2 mM […]. U937 cells were transiently transfected as described in Biotechniques Vol. 17(6):1058, 1994. Briefly, cells were grown in medium containing serum to a density of 5×10^6 cells/mL and then resuspended in media containing serum at a density of approximately 1×10^7 cells/mL. 400 μL of cells were transferred into the electroporation cuvette containing 10 μg of the reporter vector (PCRE-luc) in a volume of 40 μL H2O. Reporter vector DNA was prepared from DH5α E. coli using the DNA […] free kit (Qiagen) as per manufacturers instructions. U937 cells were clectroporated at room temperature using a BIORAD electroporator. Capacitance was set to 1050 μF and voltage was 280V. The time constant was noted after each electroporation. Cells were then diluted in 4 mL of media and serum and 200 μL of cells were plated per well. Cells were allowed to recover for 16-18 hours. Cells were then treated with a test compound or vehicle in the presence or absence of 10 μM forskolin for 4 hours at 37° C.
The luciferase assay was performed as per manufacturers instructions (Tropix). Briefly, cells were centrifuged for 4 minutes at 1200 rpm and media supernatant was removed. Cell pellets were lysed in 15 μL Lysis buffer (Tropix). Luciferase assay was performed using 10 μL of cell lysate with 10 μL of buffer A and 25 μL buffer B. Luciferase activity was obtained using a luminometer with a 5-second delay followed by a read time of 10 seconds.

[6] = test system: primary human neutrophils; test: Generation of reactive oxygen species by fMLP-activated neutrophils (luminol-enhanced chemiluminescence); type: cell-based; details: Neutrophil
Text: Neutrophil activation can be measured by quantitation of ROS generated in vitro. Measurement of ROS allows specific quantitation of a pro-inflammatory species and is also a general measure of neutrophil activation. The most sensitive method for measuring the production of ROS by neutrophils is luminol-enhanced chemiluminescence. […] The assay system used to evaluate the ability of compounds to inhibit ROS generation in neutrophils is indicative of anti-inflammatory activity that may be efficacious in disease states including but not limited to rheumatoid arthritis and inflammatory bowel disease.
Freshly isolated primary human neutrophils (5×10^6 cells/mL) were incubated with the required concentrations of compound or vehicle for 30 minutes at 37° C. in HBSS buffer (pH 7.4) containing Ca^2+. 100 nM wortmannin was used as a positive control. Aliquots of each sample were transferred to a microtitre plate to which luminol (1 μM); obtained from Sigma; Catalogue No. A8511 is added. Activation of the neutrophils was immediately initiated by addition of (1 μM) fMLP; obtained from Sigma, Catalogue No. F3506. Light output from each well was recorded for 30 minutes in a microplate luminometer. Total light output (integral of the time-course) was determined for each well. Inhibitory activities of test drugs against neutrophil ROS generation is expressed as percentage activity relative to a no drug control (100% activation or generation of ROS) containing 0.25% DMSO. Concentration of test compound required to inhibit the generation of ROS to 50% of control values (IC50's) were determined from concentration-response curves by non-linear regression analysis.

[7] = Mus musculus, topical administration, 50 μg/ear, RTX 0.1 μg/ear
[8] = read-out: IC50 range (μM) 10-100
[9] = read-out: IC50 RANGE (μM) <1, ROS production, X marks this range
[10] = read-out: EC50 range (μM) 0.1-1
[11] = ROS production, X marks this range, read-out: IC50 RANGE (μM) 10-100
[12] = ROS production, X marks this range, read-out: IC50 RANGE (μM) 1-10
[13] = read-out: IC50 RANGE (μM) >100, ROS production, X marks this range

| SMILES | PDE4:HARBS [4] | EC50 ([5]; read-out: EC50 range (μM) 1-25) [µM] | IC50 [6, 9] [µM] | IC50 [3] [µM] | also measured |
| --- | --- | --- | --- | --- | --- |
| COc1ccc([C@@H]2CCC(=O)OC2)cc1OC(C)=O [Compound 103] | – | – | – | – | inhibition in vivo at 50 µg/ear [1, 7]: 94% |
| COc1ccc([C@@H]2CCC(=O)OC2)cc1OCc1ccccc1 [Compound 92] | – | – | – | – | inhibition in vivo at 50 µg/ear [1, 7]: 93% |
| COc1cc(C[C@@H]2C[C@H](c3ccc(OC)c(OC)c3)COC2=O)ccc1O [Compound 130] | <1 | 1 to 25 | < 1 | – | IC50 [2]: 1 to 10 µM; IC50 [3, 8]: 10 to 100 µM |
| CCCCOc1cc([C@@H]2CCC(=O)OC2)ccc1OC [Compound 99] | >1 | – | < 1 | > 100 | EC50 [5, 10]: 0.1 to 1 µM; inhibition in vivo at 100 mg/kg ([1]; Mus musculus): 88%; inhibition in vivo at 50 µg/ear [1, 7]: 98% |
| COc1cc(CC2CC(c3ccc(OC)c(OC)c3)COC2=O)ccc1O (stereo not drawn) [Compound 129] | <1 | 1 to 25 | < 1 | – | IC50 [2]: 1 to 10 µM; IC50 [3, 8]: 10 to 100 µM |
| COc1cc(CC2C[C@@H](c3ccc(OC)c(OC4CCCC4)c3)COC2=O)ccc1OCc1ccccc1 (stereo partly drawn) [Compound 42] | <1 | 1 to 25 | – | > 100 | inhibition in vivo at 100 mg/kg ([1]; Mus musculus): 38%; inhibition in vivo at 10 mg/kg ([1]; Mus musculus, oral administration, 10 mg/kg): 41%; IC50 [6, 11]: 10 to 100 µM |
| COc1ccc([C@@H]2CCC(=O)OC2)cc1OC [Compound 21] | <1 | 1 to 25 | – | > 100 | IC50 [2]: 1 to 10 µM; inhibition in vivo at 50 µg/ear [1, 7]: 32%; IC50 [6, 12]: 1 to 10 µM |
| COc1ccc([C@@H](CO)CCC(=O)OC(C)(C)C)cc1OCc1ccccc1 [Compound 91] | – | – | – | – | % Inhibition of Edema ([1]; topical administration, 50 μg/ear, RTX 0.1 μg/ear): 27% |
| COc1ccc([C@H]2COC(=O)C(Cc3cccc(N)c3)C2)cc1OC1CCCC1 (stereo partly drawn) [Compound 184] | >1 | 1 to 25 | < 1 | > 100 | – |
| COc1ccc([C@@H]2CCC(=O)NC2)cc1OC [Compound 46] | >1 | 1 to 25 | – | > 100 | IC50 [6, 11]: 10 to 100 µM |
| COc1ccc(CC2C[C@@H](c3ccc(OC)c(OC)c3)COC2=O)cc1 (stereo partly drawn) [Compound 132] | <1 | 1 to 25 | – | – | IC50 [3, 8]: 10 to 100 µM; IC50 [6, 13]: > 100 µM |
| COc1ccc([C@@H]2CCC(=O)NC2)cc1OC1CCCC1 [Compound 58] | >1 | – | < 1 | > 100 | EC50 [5, 10]: 0.1 to 1 µM |
| COc1ccc([C@H]2COC(=O)C(Cc3ccc(O)c(N)c3)C2)cc1OC1CCCC1 (stereo partly drawn) [Compound 94] | >1 | – | < 1 | > 100 | EC50 [5, 10]: 0.1 to 1 µM |
| COc1ccc([C@H]2COC(=O)C(Cc3cccc([N+](=O)[O-])c3)C2)cc1OC1CCCC1 (stereo partly drawn) [Compound 175] | <1 | 1 to 25 | – | > 100 | IC50 [6, 12]: 1 to 10 µM |
| COc1ccc([C@H]2COC(=O)C(Cc3ccccc3)C2)cc1OC1CCCC1 (stereo partly drawn) [Compound 168] | <1 | 1 to 25 | < 1 | > 100 | – |
| BrCc1ccc(OCc2ccccc2)c(OCc2ccccc2)c1 [Compound 78, 3,4-dibenzyloxy benzyl bromide] | – | – | – | – | inhibition in vivo at 50 µg/ear [1, 7]: 93% |
| COc1ccc([C@@H]2CCC(=O)OC2)cc1OCC1CCC1 [Compound 157] | >1 | – | < 1 | > 100 | EC50 [5, 10]: 0.1 to 1 µM |
| COc1ccc([C@H]2COC(=O)C(Cc3ccc(O)cc3)C2)cc1OC (stereo partly drawn) [Compound 133] | <1 | 1 to 25 | < 1 | > 100 | – |
| COc1cc(CC2C[C@@H](c3ccc(OC)c(OC4CCCC4)c3)CNC2=O)ccc1OCc1ccccc1 (stereo partly drawn) [Compound 61] | <1 | 1 to 25 | – | – | IC50 [3, 8]: 10 to 100 µM; IC50 [6, 13]: > 100 µM |
